# What was measured:
# [1] = system: extracellular dopamine levels in rat striatum; experiment: brain microdialysis: extracellular dopamine levels in rat striatum; assay type: in vivo, rats; settings: 100 mg/kg i.p.
# Description: EXAMPLE 2: Assessment of (R)-phenylpiracetam on extracellular dopamine levels in rat striatum using brain microdialysis - Fig. 1
# (R)-Phenylpiracetam was dissolved in saline and injected intraperitoneally (i.p).
# Adult male Sprague-Dawley rats (n = 5, ∼300 g; Harlan, The Netherlands) were used for the experiments. After surgery animals were housed individually (cages 30 cm x 30 cm x 40 cm) with food and water was ad libitum available at standard conditions. The post-surgery interval for recovery was minimally 48 h.
# Rats were anesthetized using isoflurane (2%, 800 ml/min O2), and placed in a stereotaxic frame (Kopf instruments, USA). […]
# Concentrations of DA and DOPAC were determined in the same sample, by HPLC separation and electrochemical detection. DA and DOPAC were detected electrochemically using a potentiostate (Antec Leyden, model Intro, the Netherlands) fitted with a glassy carbon electrode set at +500 mV vs. Ag/AgCl (Antec Leyden, the Netherlands). Data was analyzed by Chromatography Data System (Shimadzu, class-vp, Japan) software. Concentrations were quantified by the external standard method.
# After transmitter levels were stabilized, four consecutive pre-treatment microdialysis samples with less than 50% variation were taken as baseline and their mean was set at 100%. […] Transmitter concentration in each fraction was expressed as % ± SEM (standard error mean) of baseline.
# rats = experiment: locomotor activity (horizontal activity) in rats; assay type: in vivo; settings: i.p. 15 min before test, starting at the dose of 100 mg/kg
# Description: EXAMPLE 4: Effect of (R)-phenylpiracetam on locomotor activity (horizontal activity) in rats - Fig. 3
# Experimentally naive adult male Sprague-Dawley rats (230-300 g) are kept four per cage, in a room with controlled temperature (21 ± 1°C) and humidity. Food and water are available ad libitum and the animals are kept under an alternating 12 h / 12 h day-night cycle (lights on at 07.00) for at least 6 days before the experiments are started. Each animal is used only once. Experimental group consist of 8 animals per group.
# Horizontal locomotor activity was measured in 8 perspex boxes (ENV-515-16, 43.2 cm x 43.2 cm x 30 cm), Med-Associates Inc.) equipped with 4 arrays of 16 infrared photobeams placed 3 cm above the floor. Distance travelled (DT) was used in further analysis as a measure of locomotion.
# (R)-Phenylpiracetam was administered i. p. in a volume of 2 ml/kg in saline
# Data with locomotor activity were analyzed by means of Kruskal-Wallis ANOVA on ranks followed, if significant, by rank sum test.
# [2] = system: subjects with Parkinson's Disease; experiment: clinical study of EDS in Parkinson patients, Epworth Sleepiness Scale; assay type: in vivo, humans; settings: 50 mg bid for 4 weeks, oral, adjunct to L-Dopa
# Description: In a prospective, randomized, double-blind, placebo-controlled, parallel group, multicenter study the tolerability, safety and efficacy of (R)-Phenylpiracetam after oral administration adjunct to L-Dopa treatment is confirmed. After a screening period of one week 36 subjects with Parkinson's Disease receive 50 mg (R)-Phenylpiracetam or placebo bid at 8.00 am and 3.00 pm for 4 weeks. A safety follow-up is performed 1 week after the double-blind treatment period. Visits take place 1 week before randomization (V1, day -7), at baseline (V2, day 1), at Week 2 (V3) and Week 4 (V4). A safety follow-up (V5) is performed 1 week after the last intake of study medication. An assessment of excessive daily sleepiness using the Epworth Sleepiness Scale [ESS] takes place at screening, baseline, week 2 and week 4.
# The questionnaire asks the subject to rate his or her probability of falling asleep on a scale of increasing probability from 0 to 3 for 8 different situations that most people engage in during their daily lives, though not necessarily every day (Johns et al. J Neurol Neurosurg Psychiatry. 2005;76(12):1636). The scores for the 8 questions are added together to obtain a single number. […]
# The absolute change of ESS from day 1 to day 14 and 28 is analyzed.
# [3] = just slightly stronger with (R)- than with (S)-phenylpiracetam; cited from earlier work
# [4] = model for depression; cited from earlier work
smiles,measurement,setting,value
NC(=O)CN1C[C@@H](c2ccccc2)CC1=O [(R)-phenylpiracetam],concentration of dopamine in the striatum,[1],increases extracellular dopamine levels
same,locomotor activity (horizontal activity),rats,increases locomotor activity
same,improvement of ESS (absolute change from day 1 to day 14 and 28),[2],at least 3 points
same,locomotor activity in the open-field test,[3],significant increase
same,potency in the forced swim test,[4],only slightly more potent than (S)-phenylpiracetam

# Reference: patent publication EP2891491A1, “Use of (r)-phenylpiracetam for the treatment of sleep disorders” (Merz Pharma GmbH & Co. KGaA, priority 2014, dated 2015)
